Columns and labels:
[1] = test system: T47D (PI3Kα-H1047R) cell line; test: HTRF phospho-AKT(S473) cell assay in T47D cells; format: cell-based, human; settings: Homo sapiens, 2 hours compound incubation
Procedure, shortened: (§1)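 pAKT(S473) in lysates read by HTRF after a 2 h, 37 °C compound exposure (12-point 1:3 series, max 0.5% DMSO). SKBR3 (wild type, top 10 μM) received 70 ng/ml PDGF-BB during the final 15 min; T47D (H1047R, top 5 μM) was unstimulated. IC50 values derived from the dose-response.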

[2] = test system: SKBR3 (PI3Kα-Wild Type) cell line; test: HTRF phospho-AKT(S473) cell assay in SKBR3 cells; format: cell-based, human; settings: Homo sapiens, SK-BR-3, 2 hours compound incubation, PDGF-BB stimulated
Procedure, shortened: as §1

[3] = T47D (PI3Kα-H1047R) cells, HTRF phospho-AKT(S473)
[4] = SKBR3 (PI3Kα-Wild Type) cells, HTRF phospho-AKT(S473)
[5] = HTRF phospho-AKT(S473), T47D (PI3Kα-H1047R) cells
[6] = HTRF phospho-AKT(S473), SKBR3 (PI3Kα-Wild Type) cells

| IC50 [1, 3] [µM] | IC50 [2, 4] [µM] | IC50 [1, 5] [µM] | IC50 [2, 6] [µM] | SMILES | also measured |
| --- | --- | --- | --- | --- | --- |
| < 0.25 | 1 to 5 | – | – | C[C@@H](Nc1ccc(Cl)nc1C(=O)NS(C)(=O)=O)c1cc(F)cc2c(=O)n(C)c(N3C[C@@H]4[C@H](C3)[C@H]4c3ccnn3C)nc12 [Compound 374, 6-chloro-3-(((R)-1-(6-fluoro-3-methyl-2-((1R,5S,6R)-6-(1-methyl-1H-pyrazol-5-yl)-3-azabicyclo[3.1.0]hexan-3-yl)-4-oxo-3,4-dihydroquinazolin-8-yl)ethyl)amino)-N-(methylsulfonyl) picolinamide] | – |
| – | – | 0.25 to 0.5 | ≥ 5 | Cc1cnc(N2CCN(c3nc4c([C@@H](C)Nc5ccc(Cl)nc5C(=O)NS(C)(=O)=O)cc(C)cc4c(=O)n3C)CC2)nc1 [Compound 532, (R)-6-chloro-3-((1-(3,6-dimethyl-2-(4-(5-methylpyrimidin-2-yl)piperazin-1-yl)-4-oxo-3,4-dihydroquinazolin-8-yl)ethyl)amino)-N-(methylsulfonyl) picolinamide] | – |
| 0.25 to 0.5 | 1 to 5 | – | – | C[C@@H](Nc1ccc(Cl)nc1C(=O)NS(C)(=O)=O)c1cc(F)cc2c(=O)n(C)c(N3CCC(c4nn(C)cc4F)CC3)nc12 [Compound 364, (R)-6-chloro-3-((1-(6-fluoro-2-(4-(4-fluoro-1-methyl-1H-pyrazol-3-yl)piperidin-1-yl)-3-methyl-4-oxo-3,4-dihydroquinazolin-8-yl)ethyl)amino)-N-(methylsulfonyl) picolinamide] | – |
| 0.25 to 0.5 | ≥ 5 | – | – | Cc1cc([C@@H](C)Nc2ccc(Cl)nc2C(=O)NS(C)(=O)=O)c2nc(N3C[C@@H]4[C@H](C3)[C@H]4c3ccc(N(C)C)nc3)n(C)c(=O)c2c1 [Compound 393, 6-chloro-3-(((R)-1-(2-((1R,5S,6S)-6-(6-(dimethylamino)pyridin-3-yl)-3-azabicyclo[3.1.0]hexan-3-yl)-3,6-dimethyl-4-oxo-3,4-dihydroquinazolin-8-yl)ethyl)amino)-N-(methylsulfonyl) picolinamide] | – |
| < 0.25 | 1 to 5 | – | – | Cc1cc([C@@H](C)Nc2ccc(Cl)nc2C(=O)NS(C)(=O)=O)c2nc(N3CCn4nc(C)cc4C3)n(C)c(=O)c2c1 [Compound 166] | – |
| < 0.25 | 1 to 5 | – | – | Cc1cc([C@@H](C)Nc2ccc(Cl)nc2C(=O)NS(C)(=O)=O)c2nc(N3Cc4cn(-c5ccc(C#N)cc5)nc4C3)n(C)c(=O)c2c1 [Compound 239, (R)-6-chloro-3-((1-(2-(2-(4-cyanophenyl)-2,6-dihydropyrrolo[3,4-c]pyrazol-5(4H)-yl)-3,6-dimethyl-4-oxo-3,4-dihydroquinazolin-8-yl)ethyl)amino)-N-(methylsulfonyl) picolinamide] | – |
| – | – | < 0.25 | 1 to 5 | Cc1cc([C@@H](C)Nc2ccc(Cl)nc2C(=O)NS(C)(=O)=O)c2nc(N3C[C@@H]4[C@H](C3)[C@H]4c3ccnn3C3CC3)n(C)c(=O)c2c1 [Compound 460, 6-chloro-3-(((R)-1-(2-((1R,5S,6R)-6-(1-cyclopropyl-1H-pyrazol-5-yl)-3-azabicyclo[3.1.0]hexan-3-yl)-3,6-dimethyl-4-oxo-3,4-dihydroquinazolin-8-yl)ethyl)amino)-N-(methylsulfonyl) picolinamide] | – |
| – | – | < 0.25 | 1 to 5 | Cc1cc([C@@H](C)Nc2ccc(Cl)nc2C(=O)NS(C)(=O)=O)c2nc(N3C[C@@H]4[C@H](C3)[C@H]4c3cn(C(C)C)nn3)n(C)c(=O)c2c1 [Compound 528, 6-chloro-3-(((R)-1-(2-((1R,5S,6R)-6-(1-isopropyl-1H-1,2,3-triazol-4-yl)-3-azabicyclo[3.1.0]hexan-3-yl)-3,6-dimethyl-4-oxo-3,4-dihydroquinazolin-8-yl)ethyl)amino)-N-(methylsulfonyl) picolinamide] | – |
| – | – | 0.25 to 0.5 | 1 to 5 | Cc1cc([C@@H](C)Nc2ccc(Cl)nc2C(=O)NS(C)(=O)=O)c2nc(N3C[C@@H]4[C@H](C3)[C@H]4c3cc(C)ncc3F)n(C)c(=O)c2c1 [Compound 495, 6-chloro-3-(((R)-1-(2-((1R,5S,6S)-6-(5-fluoro-2-methylpyridin-4-yl)-3-azabicyclo[3.1.0]hexan-3-yl)-3,6-dimethyl-4-oxo-3,4-dihydroquinazolin-8-yl)ethyl)amino)-N-(methylsulfonyl) picolinamide] | – |
| 0.25 to 0.5 | 1 to 5 | – | – | Cc1cc([C@@H](C)Nc2ccc(Cl)nc2C(=O)NS(C)(=O)=O)c2nc(-c3ccc(-c4noc(C)n4)nc3)n(C)c(=O)c2c1 [Compound 303, (R)-6-chloro-3-((1-(3,6-dimethyl-2-(6-(5-methyl-1,2,4-oxadiazol-3-yl)pyridin-3-yl)-4-oxo-3,4-dihydroquinazolin-8-yl)ethyl)amino)-N-(methylsulfonyl) picolinamide] | – |
| – | – | – | – | COc1ncc(-c2nc3c([C@@H](C)Nc4ccc(Cl)nc4C(=O)NS(C)(=O)=O)cc(C)cc3c(=O)n2C)cn1 [Compound 856, (R)-6-chloro-3-((1-(2-(2-methoxypyrimidin-5-yl)-3,6-dimethyl-4-oxo-3,4-dihydroquinazolin-8-yl)ethyl)amino)-N-(methylsulfonyl) picolinamide] | IC50 ([1]; T47D (PI3Kα-H1047R) cell line, phospho-AKT(S473) HTRF): 0.25 to 0.5 µM; IC50 ([2]; SKBR3 (PI3Kα-Wild Type) cell line, phospho-AKT(S473) HTRF): ≥ 5 µM |
| 0.25 to 0.5 | 1 to 5 | – | – | COc1ccn(C2CCN(c3nc4c([C@@H](C)Nc5ccc(Cl)nc5C(=O)NS(C)(=O)=O)cc(C)cc4c(=O)n3C)CC2)n1 [Compound 317, (R)-6-chloro-3-((1-(2-(4-(3-methoxy-1H-pyrazol-1-yl)piperidin-1-yl)-3,6-dimethyl-4-oxo-3,4-dihydroquinazolin-8-yl)ethyl)amino)-N-(methylsulfonyl) picolinamide] | – |
| – | – | < 0.25 | 1 to 5 | COc1ncc(F)c(N2CCN(c3nc4c([C@@H](C)Nc5ccc(Cl)nc5C(=O)NS(C)(=O)=O)cc(C)cc4c(=O)n3C)CC2)n1 [Compound 720, (R)-6-chloro-3-((1-(2-(4-(5-fluoro-2-methoxypyrimidin-4-yl)piperazin-1-yl)-3,6-dimethyl-4-oxo-3,4-dihydroquinazolin-8-yl)ethyl)amino)-N-(methylsulfonyl) picolinamide] | – |
| – | – | < 0.25 | 1 to 5 | Cc1cc([C@@H](C)Nc2ccc(Cl)nc2C(=O)NS(C)(=O)=O)c2nc(N3C[C@@H]4[C@H](C3)[C@H]4c3cc4n(n3)CCC4)n(C)c(=O)c2c1 [Compound 477, 6-chloro-3-(((R)-1-(2-((1R,5S,6R)-6-(5,6-dihydro-4H-pyrrolo[1,2-b]pyrazol-2-yl)-3-azabicyclo[3.1.0]hexan-3-yl)-3,6-dimethyl-4-oxo-3,4-dihydroquinazolin-8-yl)ethyl)amino)-N-(methylsulfonyl) picolinamide] | – |
| < 0.25 | 1 to 5 | – | – | Cc1cc([C@@H](C)Nc2ccc(Cl)nc2C(=O)NS(C)(=O)=O)c2nc(N3Cc4cccc(-c5ccnn5C)c4C3)n(C)c(=O)c2c1 [Compound 274, (R)-6-chloro-3-((1-(3,6-dimethyl-2-(4-(1-methyl-1H-pyrazol-5-yl)isoindolin-2-yl)-4-oxo-3,4-dihydroquinazolin-8-yl)ethyl)amino)-N-(methylsulfonyl) picolinamide] | – |
| – | – | 0.25 to 0.5 | ≥ 5 | Cc1cc([C@@H](C)Nc2ccc(Cl)nc2C(=O)NS(C)(=O)=O)c2nc(N3CCC[C@@H](c4nccc(C)n4)C3)n(C)c(=O)c2c1 (mixture of isomers) [Compound 633, 6-chloro-3-(((R)-1-(3,6-dimethyl-2-((RS)-3-(4-methylpyrimidin-2-yl)piperidin-1-yl)-4-oxo-3,4-dihydroquinazolin-8-yl)ethyl)amino)-N-(methylsulfonyl) picolinamide] | – |

From patent publication US12281122B1, “PI3K inhibitors” (Cogent Biosciences, Inc., priority 2023, dated 2025)
